Measurements reported in patent publication US20250198992A1, “IN VITRO METHODS” (HALEON CH SARL, priority 2022, published 2025).

How the values were obtained:
[1] = both, human
Protocol: The skin was donated by male and female patients aged 28 to 63 years old undergoing abdominal plastic surgery at the Department for Plastic, Aesthetic, and Reconstructive Surgery of the Medical University Graz. […] The human skin explants were cleaned with gauze swabs and purified water and were subsequently stored frozen at −20° C.
The skin explants were thawed at room temperature for 12 h before the start of the study. They were fixed on a plate of extruded polystyrene wrapped in a medical underpad (MoliNea N, Paul Hartmann AG, Austria) and placed into a climate chamber (32° C./40-60% relative humidity) for 1 h before use. Ambient temperature and ambient relative humidity within the climate chamber were controlled throughout the experiment with a data logger with integrated temperature sensor and relative humidity sensor (175 H1 temperature and humidity data logger, Testo, Germany).
Cannulas (Sterican 20G, B.Braun, Germany) were inserted into the dermis and the subcutis of the skin explant. OFM probes (OFM-P0X-15, JR-HEALTH, Austria) were pushed through the cannulas. Afterwards, the cannulas were removed and the probes were fixed to the skin with cyanoacrylate (Cyanolit 241F, Panacol-Elosol GmbH, Germany). […]

protein = conditions: cited from earlier work
[2] = Non-specific adsorption of diclofenac on the OFM probes and tubing; conditions: for the duration of the experiment (6 h); data not shown
Protocol: Two test solutions of diclofenac diethyl amine salt (DDEA) and diclofenac sodium salt (DNa) were tested. […] Samples were collected in 1 h intervals. Syringes and Eppendorf® vials were used to deliver test solution to the OFM outlet sections and tubing, respectively. Samples from the syringes and from the Eppendorf® vials were taken at the start (t=0 h) and at the end (t=6 h) of the experiment to determine the concentration entering the OFM probe and tubing. Syringes, dosing needles, Eppendorf® vials, and pipette tips were coated with each test solution prior to use. For coating, the samples were filled with test solutions and maintained at room temperature for 30 min. Afterwards, the coating test solutions were discarded. Pipette tips underwent three cycles of filling and emptying of test solutions. The fourth filling of the pipette tip was used as the sample. Adsorption was assessed by comparing inflow to outflow concentrations. […] LLOQ was 10 ng mL^-1.

SMILES: O=C(O)Cc1ccccc1Nc1c(Cl)cccc1Cl [DNa, diclofenac sodium]
- concentration in recirculation probes higher than in control probes by ([1]; 28 h): 9 ng/mL

SMILES: O=C(O)Cc1ccccc1Nc1c(Cl)cccc1Cl [Diclofenac, diclofenac]
- protein binding (protein): > 99.8%
- dilution factor [1]: 13.9 fold

SMILES: O=C(O)Cc1ccccc1Nc1c(Cl)cccc1Cl [DDEA, diclofenac diethylammonium]
- stability in the stock solution [2]: stable
